Activity calls are given as the source filed them. No cut-off for these calls is given here.
Experiments:
MCF7 = experiment: Anticancer activity against human MCF7 cells assessed as inhibition of cell growth measured after 48 hrs by MTT assay; type: functional, cell-based; conditions: MCF7, 48 h
K562 [1] = experiment: Anticancer activity against human K562 cells assessed as inhibition of cell growth measured after 48 hrs by MTT assay; type: functional, cell-based; conditions: K562, 48 h
HeLa [2] = experiment: Induction of cell cycle arrest in human HeLa cells assessed as accumulation of cells at subG1 phase at 1 uM measured after 48 hrs by propidium iodide staining based flow cytometry analysis (reference value: 6.8%); type: functional
HeLa [3] = experiment: Induction of cell cycle arrest in human HeLa cells assessed as accumulation of cells at subG1 phase at 5 uM measured after 48 hrs by propidium iodide staining based flow cytometry analysis (reference value: 6.8%); type: functional
HeLa [4] = experiment: Induction of cell cycle arrest in human HeLa cells assessed as accumulation of cells at G0/G1 phase at 1 uM measured after 48 hrs by propidium iodide staining based flow cytometry analysis (reference value: 85.6%); type: functional
HeLa [5] = experiment: Induction of cell cycle arrest in human HeLa cells assessed as accumulation of cells at G0/G1 phase at 5 uM measured after 48 hrs by propidium iodide staining based flow cytometry analysis (reference value: 85.6%); type: functional
HeLa [6] = experiment: Induction of cell cycle arrest in human HeLa cells assessed as accumulation of cells at S phase at 1 uM measured after 48 hrs by propidium iodide staining based flow cytometry analysis (reference value: 1.0%); type: functional
HeLa [7] = experiment: Induction of cell cycle arrest in human HeLa cells assessed as accumulation of cells at S phase at 5 uM measured after 48 hrs by propidium iodide staining based flow cytometry analysis (reference value: 1.0%); type: functional
HeLa [8] = experiment: Induction of cell cycle arrest in human HeLa cells assessed as accumulation of cells at G2/M phase at 1 uM measured after 48 hrs by propidium iodide staining based flow cytometry analysis (reference value: 6.9%); type: functional
HeLa [9] = experiment: Induction of cell cycle arrest in human HeLa cells assessed as accumulation of cells at G2/M phase at 5 uM measured after 48 hrs by propidium iodide staining based flow cytometry analysis (reference value: 6.9%); type: functional
HeLa [10] = experiment: Induction of apoptosis in human HeLa cells assessed as viable cells at 1 uM measured after 48 hrs by annexin V-FITC based propidium iodide dual staining based flow cytometry analysis (reference value: 81.7%); type: functional; conditions: read-out: Activity
HeLa [11] = experiment: Induction of apoptosis in human HeLa cells assessed as viable cells at 5 uM measured after 48 hrs by annexin V-FITC based propidium iodide dual staining based flow cytometry analysis (reference value: 81.7%); type: functional; conditions: read-out: Activity
HeLa [12] = experiment: Induction of apoptosis in human HeLa cells assessed as early apoptotic cells at 1 uM measured after 48 hrs by annexin V-FITC based propidium iodide dual staining based flow cytometry analysis (reference value: 13.8%); type: functional
HeLa [13] = experiment: Induction of apoptosis in human HeLa cells assessed as early apoptotic cells at 5 uM measured after 48 hrs by annexin V-FITC based propidium iodide dual staining based flow cytometry analysis (reference value: 13.8%); type: functional
HeLa [14] = experiment: Induction of apoptosis in human HeLa cells assessed as late apoptotic cells at 1 uM measured after 48 hrs by annexin V-FITC based propidium iodide dual staining based flow cytometry analysis (reference value: 3.5%); type: functional
HeLa [15] = experiment: Induction of apoptosis in human HeLa cells assessed as late apoptotic cells at 5 uM measured after 48 hrs by annexin V-FITC based propidium iodide dual staining based flow cytometry analysis (reference value: 3.5%); type: functional
HeLa [16] = experiment: Induction of apoptosis in human HeLa cells assessed as necrotic cells at 1 uM measured after 48 hrs by annexin V-FITC based propidium iodide dual staining based flow cytometry analysis (reference value: 1.0%); type: functional
HeLa [17] = experiment: Induction of apoptosis in human HeLa cells assessed as necrotic cells at 5 uM measured after 48 hrs by annexin V-FITC based propidium iodide dual staining based flow cytometry analysis (reference value: 1.0%); type: functional
K562 [18] = experiment: Downregulation of MCL-1 expression in human K562 cells at 1 to 5 uM measured after 48 hrs by RT-qPCR analysis; type: functional, cell-based; conditions: dose 1-5 µM
K562 [19] = experiment: Downregulation of EGFR expression in human K562 cells at 1 to 5 uM measured after 48 hrs by RT-qPCR analysis; type: functional, cell-based; conditions: dose 1-5 µM
HeLa [20] = experiment: Anticancer activity against human HeLa cells assessed as inhibition of cell growth measured after 48 hrs by MTT assay; type: functional, cell-based
DU-145 = experiment: Anticancer activity against human DU-145 cells assessed as inhibition of cell growth measured after 48 hrs by MTT assay; type: functional, cell-based; conditions: DU-145, 48 h
HepG2 = experiment: Anticancer activity against human HepG2 cells assessed as inhibition of cell growth measured after 48 hrs by MTT assay; type: functional, cell-based; conditions: HepG2, 48 h
[21] = Cytotoxicity against HEK293 cells assessed as inhibition of cell growth measured after 48 hrs by MTT assay; type: toxicity, cell-based; conditions: human
HeLa [22] = experiment: Induction of apoptosis in human HeLa cells assessed as nuclear condensation at 1 to 5 uM measured after 48 hrs by Hoechst staining based fluorescent microscopic analysis; type: functional, cell-based; conditions: dose 1-5 µM
K562 [23] = experiment: Downregulation of MCL-1 expression in human K562 cells measured after 48 hrs by RT-qPCR analysis; type: functional, cell-based; conditions: dose 1-5 µM
K562 [24] = experiment: Downregulation of EGFR expression in human K562 cells measured after 48 hrs by RT-qPCR analysis; type: functional, cell-based; conditions: dose 1-5 µM

Row | SMILES | IC50 (MCF7) [µM] | IC50 (K562 [1]) [µM] | IC50 (HeLa [20]) [µM] | IC50 (DU-145) [µM] | IC50 (HepG2) [µM] | IC50 at 48 h [21] [µM] | other results
1 | COc1cccc2c1C(=O)c1c(O)c3c(c(O)c1C2=O)C[C@@](O)(C(=O)CO)C[C@@H]3O[C@H]1C[C@H](N)[C@H](O)[C@H](C)O1 [DOXORUBICIN] | 1.48 | 1.23 | – | – | – | – | Activity (HeLa [2]): 4.2%; Activity (HeLa [3]): 3.7%; Activity (HeLa [4]): 60%; Activity (HeLa [5]): 40.3%; Activity (HeLa [6]): 3%; Activity (HeLa [7]): 2.6%; Activity (HeLa [8]): 34.2%; Activity (HeLa [9]): 52.7%; viability at 1 µM (HeLa [10]): 75.6%; viability at 5 µM (HeLa [11]): 64.4%; Activity (HeLa [12]): 19.6%; Activity (HeLa [13]): 30.3%; Activity (HeLa [14]): 3.1%; Activity (HeLa [15]): 4.8%; Activity (HeLa [16]): 1.7%; Activity (HeLa [17]): 0.5%; Activity (K562 [18]): Active; Activity (K562 [19]): Active
2 | COc1cc(-n2cc(Cn3cc(C=C4C(=O)OC(C)(C)OC4=O)c4cccnc43)nn2)cc(OC)c1OC | 13.1 | 14.3 | 9.52 | 18.8 | 20.1 | 76.6 | –
3 | CC1(C)OC(=O)C(=Cc2cn(Cc3cn(-c4ccccc4)nn3)c3ncccc23)C(=O)O1 | 28.3 | 20.2 | 21.3 | 49.3 | 29.2 | > 100 | –
4 | COc1cc(OC)cc(-n2cc(Cn3cc(C=C4C(=O)OC(C)(C)OC4=O)c4cccnc43)nn2)c1 | 20.2 | 14.5 | 9.68 | 14.7 | 28.4 | 81.7 | –
5 | CC1(C)OC(=O)C(=Cc2cn(Cc3cn(-c4cc(Cl)cc(Cl)c4)nn3)c3ncccc23)C(=O)O1 | 25.4 | 26.8 | 25 | 37.8 | 49.4 | > 100 | –
6 | CC1(C)OC(=O)C(=Cc2cn(Cc3cn(-c4ccc(Br)cc4)nn3)c3ncccc23)C(=O)O1 | 7.32 | 12.5 | 6.87 | 15.4 | 29.1 | 93.9 | –
7 | CC1(C)OC(=O)C(=Cc2cn(Cc3cn(-c4ccc(Cl)c(Cl)c4)nn3)c3ncccc23)C(=O)O1 | 24.2 | 20.2 | 16.6 | 33.8 | 26.1 | > 100 | –
8 | CC1(C)OC(=O)C(=Cc2cn(Cc3cn(-c4ccc(Br)cc4F)nn3)c3ncccc23)C(=O)O1 | 19.9 | 19.1 | 10.3 | 22.6 | 27.8 | 90.8 | –
9 | CC1(C)OC(=O)C(=Cc2cn(Cc3cn(-c4cccc(Cl)c4)nn3)c3ncccc23)C(=O)O1 | 20.1 | 17.2 | 12.8 | 28.4 | 26.6 | > 100 | –

More lines, main results first:

Row | IC50 (MCF7) [µM] | IC50 (K562 [1]) [µM] | IC50 (HeLa [20]) [µM] | IC50 (DU-145) [µM] | IC50 (HepG2) [µM] | SMILES | IC50 at 48 h [21] [µM] | other results
10 | 20.8 | 19.1 | 18.9 | 22.8 | 37 | CC1(C)OC(=O)C(=Cc2cn(Cc3cn(-c4ccc(F)cc4)nn3)c3ncccc23)C(=O)O1 | > 100 | –
11 | 6.67 | 6.03 | 4.44 | 12.4 | 9.97 | Cc1ccc(-n2cc(Cn3cc(C=C4C(=O)OC(C)(C)OC4=O)c4cccnc43)nn2)cc1 | > 100 | Activity (HeLa [2]): 6%; Activity (HeLa [3]): 3.1%; Activity (HeLa [4]): 72.2%; Activity (HeLa [5]): 39.1%; Activity (HeLa [6]): 2.1%; Activity (HeLa [7]): 2.7%; Activity (HeLa [8]): 20.7%; Activity (HeLa [9]): 54.4%; Activity (HeLa [22]): Active; viability at 1 µM (HeLa [10]): 79.2%; viability at 5 µM (HeLa [11]): 55.4%; Activity (HeLa [12]): 16.8%; Activity (HeLa [13]): 39.7%; Activity (HeLa [14]): 2.5%; Activity (HeLa [15]): 4.6%; Activity (HeLa [16]): 1.5%; Activity (HeLa [17]): 0.3%; Activity (K562 [23]): Dose-Dependent Effect; Activity (K562 [24]): Dose-Dependent Effect
12 | 15.2 | 16.8 | 16.2 | 32.1 | 27.9 | CC1(C)OC(=O)C(=Cc2cn(Cc3cn(-c4ccc(I)cc4)nn3)c3ncccc23)C(=O)O1 | > 100 | –
13 | 22.9 | 20.5 | 16.7 | 22.6 | 24.5 | CC1(C)OC(=O)C(=Cc2cn(Cc3cn(-c4ccc(Cl)cc4)nn3)c3ncccc23)C(=O)O1 | 97.3 | –
14 | 18 | 16.1 | 12.8 | 15.4 | 21.9 | CC1(C)OC(=O)C(=Cc2cn(Cc3cn(-c4ccccc4Cl)nn3)c3ncccc23)C(=O)O1 | > 100 | –
15 | 25.8 | 21.4 | 19.4 | 27.7 | 30.1 | CC1(C)OC(=O)C(=Cc2cn(Cc3cn(-c4ccc([N+](=O)[O-])cc4)nn3)c3ncccc23)C(=O)O1 | > 100 | –
16 | 36.1 | 16.4 | 15.9 | 33.8 | 42.1 | COc1ccc(-n2cc(Cn3cc(C=C4C(=O)OC(C)(C)OC4=O)c4cccnc43)nn2)cc1 | 99.7 | –

From ChEMBL document CHEMBL5634208, “Design and synthesis of Meldrum's acid based 7-azaindole anchored 1,2,3-triazole hybrids as anticancer agents” (RSC Med Chem, 2024)
